Experimental data as given in patent US11708348B2, “Protease inhibitors for treatment of coronavirus infections” (The Scripps Research Institute, priority 2021, dated 2023).
Where two headings read alike, the source gives them in different places.

System: SARS-CoV-2 strain USA-WA1/2020
Assay: microbe, parasite or virus in culture
Format: cell-based
Conditions: Severe acute respiratory syndrome coronavirus 2, HeLa-ACE2, 24 h, HeLa-ACE2 cells, SARS-CoV-2 infection, 24 h, read-out: EC50, uM (Hela)

Row | Compound | EC50 [µM] | also measured
1 | CC(C)C[C@H](NC(=O)C(=O)Nc1c(OC(C)C)cccc1OC(C)C)C(=O)N[C@@H](C[C@@H]1CCNC1=O)C(=O)COC(F)(F)F [Compound 170, Nl-(2,6-diisopropoxyphenyl)-N2-((S)-4-methyl-1-oxo-1-(((S)-3-oxo-1-((S)-2-oxopyrrolidin-3-yl)-4-(trifluoromethoxy)butan-2-yl)amino)pentan-2-yl)oxalamide] | – | EC50 (class symbols): < 0.05 µM
2 | CC(C)(F)C(=O)N1CC2(CC2)C[C@H]1C(=O)N[C@@H](C[C@@H]1CCNC1=O)C(=O)COC(F)(F)F [Compound 735, (S)-5-(2-fluoro-2-methylpropanoyl)-N-((S)-3-oxo-1-((S)-2-oxopyrrolidin-3-yl)-4-(trifluoromethoxy)butan-2-yl)-5-azaspiro[2.4]heptane-6-carboxamide] | < 0.05 | –
3 | CC(C)Cn1cc(C(=O)N2CC3(CC3)C[C@H]2C(=O)N[C@@H](C[C@@H]2CCNC2=O)C(=O)COC(F)(F)F)nn1 [Compound 695, (S)-5-(1-isobutyl-1H-1,2,3-triazole-4-carbonyl)-N-((S)-3-oxo-1-((S)-2-oxopyrrolidin-3-yl)-4-(trifluoromethoxy)butan-2-yl)-5-azaspiro[2.4]heptane-6-carboxamide] | 0.05 to 0.2 | –
4 | O=C1NCC[C@H]1C[C@H](NC(=O)[C@@H]1C[C@H]2C[C@H]2N1C(=O)[C@@H]1CCCO1)C(=O)COC(F)(F)F [Compound 304, (1R,3S,5R)-N-(3-oxo-1-((S)-2-oxopyrrolidin-3-yl)-4-(trifluoromethoxy)butan-2-yl)-2-((S)-tetrahydrofuran-2-carbonyl)-2-azabicyclo[3.1.0]-hexane-3-carboxamide] | – | EC50 (bound printed in cell): > 1 µM
5 | CC(C)C[C@H](NC(=O)c1cc(-c2ccccc2)on1)C(=O)N[C@@H](C[C@@H]1CCNC1=O)C(=O)COc1c(F)c(F)cc(F)c1F [Compound 70, N-((S)-4-methyl-1-oxo-1-(((S)-3-oxo-1-((S)-2-oxopyrrolidin-3-yl)-4-(2,3,5,6-tetrafluoro-phenoxy)butan-2-yl)amino)pentan-2-yl)-5-phenylisoxazole-3-carboxamide] | – | EC50 (class symbols): 0.2 to 0.5 µM
6 | O=C1NCC[C@H]1C[C@H](NC(=O)[C@@H]1CC2(CC2)CN1C(=O)c1ncccc1F)C(=O)COC(F)(F)F [Compound 593, (S)-5-(3-fluoropicolinoyl)-N-((S)-3-oxo-1-((S)-2-oxopyrrolidin-3-yl)-4-(trifluoromethoxy)butan-2-yl)-5-azaspiro[2.4]-heptane-6-carboxamide] | 0.2 to 0.5 | –
7 | O=C1NCC[C@H]1C[C@H](NC(=O)[C@@H]1CC2(CC2)CN1C(=O)[C@H](O)c1ccccc1F)C(=O)COC(F)(F)F [Compound 410, (S)-5-((R)-2-(2-fluorophenyl)-2-hydroxyacetyl)-N-((S)-3-oxo-1-((S)-2-oxopyrrolidin-3-yl)-4-(trifluoromethoxy)butan-2-yl)-5-azaspiro[2.4]heptane-6-carboxamide] | 0.05 to 0.2 | –
8 | O=C1NCC[C@H]1C[C@H](NC(=O)[C@@H]1CC2(CC2)CN1C(=O)C(O)c1ccc(F)cc1F)C(=O)COC(F)(F)F (stereo partly drawn) [Compound 402, (6S)-5-(2-(2,4-difluorophenyl)-2-hydroxyacetyl)-N-((S)-3-oxo-1-((S)-2-oxopyrrolidin-3-yl)-4-(trifluoromethoxy)butan-2-yl)-5-azaspiro[2.4]heptane-6-carboxamide] | < 0.05 | –
9 | CC(C)(C)NC(=O)C(=O)N1CC2(CCOCC2)CC1C(=O)N[C@@H](C[C@@H]1CCNC1=O)C(=O)COC(F)(F)F (stereo partly drawn) [Compound 522, 2-(2-(tert-butylamino) -2-oxoacetyl)-N-((S)-3-oxo-1-((S)-2-oxopyrrolidin-3-yl)-4-(trifluoromethoxy)butan-2-yl)-8-oxa-2-azaspiro[4.5]decane-3-carboxamide] | 0.5 to 1 | –
10 | COCc1ccccc1NC(=O)C(=O)N[C@@H](CC(C)C)C(=O)N[C@@H](C[C@@H]1CCNC1=O)C(=O)COc1c(F)c(F)cc(F)c1F [Compound 143, N1-(2-(methoxymethyl)phenyl)-N2-((S)-4-methyl-1-oxo-1-(((S)-3-oxo-1-((S)-2-oxopyrrolidin-3-yl)-4-(2,3,5,6-tetrafluorophenoxy)butan-2-yl)amino)pentan-2-yl)oxalamide] | – | EC50 (class symbols): 0.05 to 0.2 µM
11 | O=C(NC1(C(F)(F)F)CC1)C(=O)N1C[C@@H]2CCC[C@@H]2[C@H]1C(=O)N[C@@H](C[C@@H]1CCNC1=O)C(=O)COC(F)(F)F [Compound 656, (1S,3aR,6aS)-N-((S)-3-oxo-1-((S)-2-oxopyrrolidin-3-yl)-4-(trifluoromethoxy)butan-2-yl)-2-(2-oxo-2-((1-(trifluoromethyl)cyclopropyl)amino)-acetyl)octahydrocyclopenta[c]pyrrole-1-carboxamide] | 0.05 to 0.2 | –
12 | CC(C)(C)NC(=O)C(=O)N1C[C@@]2(C[C@H]1C(=O)N[C@@H](C[C@@H]1CCNC1=O)C(=O)COC(F)(F)F)CC2(F)F [Compound 518, (3R,6S)-5-(2-(tert-butylamino)-2-oxoacetyl)-1,1-difluoro-N-((S)-3-oxo-1-((S)-2-oxopyrrolidin-3-yl)-4-(trifluoromethoxy)butan-2-yl)-5-azaspiro[2.4]-heptane-6-carboxamide] | 0.05 to 0.2 | –
13 | COC(=O)N[C@H](C(=O)N1CC2(CC2)C[C@H]1C(=O)N[C@@H](C[C@@H]1CCNC1=O)C(=O)COC(F)(F)F)C(C)(C)C [Compound 433, methyl ((S)-3,3-dimethyl-1-oxo-1-((S)-6-(((S)-3-oxo-1-((S)-2-oxopyrrolidin-3-yl)-4-(trifluoromethoxy)butan-2-yl)carbamoyl)-5-azaspiro[2.4]heptan-5-yl)butan-2-yl)carbamate] | 0.05 to 0.2 | –
14 | C[C@@](O)(C(=O)N1CC2(CC2)C[C@H]1C(=O)N[C@@H](C[C@@H]1CCNC1=O)C(=O)COC(F)(F)F)C(F)(F)F [Compound 722, (S)-N-((S)-3-oxo-1-((S)-2-oxopyrrolidin-3-yl)-4-(trifluoromethoxy)butan-2-yl)-5-((R)-3,3,3-trifluoro-2-hydroxy-2-methylpropanoyl)-5-azaspiro[2.4]heptane-6-carboxamide] | 0.05 to 0.2 | –
15 | O=C1NCC[C@H]1C[C@H](NC(=O)[C@@H]1[C@H]2CCC[C@H]2CN1C(=O)c1noc2c1CNCC2)C(=O)COC(F)(F)F [Compound 556, (1S,3aR,6aS)-N-((S)-3-oxo-1-((S)-2-oxopyrrolidin-3-yl)-4-(trifluoromethoxy)butan-2-yl)-2-(4,5,6,7-tetrahydroisoxazolo[4,5-c]pyridine-3-carbonyl)octahydro-cyclopenta[c]pyrrole-1-carboxamide] | – | EC50 (given as bound): > 1 µM
16 | CC(C)(C)C[C@H](NC(=O)c1cnc(C(F)(F)F)s1)C(=O)N[C@@H](C[C@@H]1CCNC1=O)C(=O)COC(F)(F)F [Compound 538, N-((S)-4,4-dimethyl-1-oxo-1-(((S)-3-oxo-1-((S)-2-oxopyrrolidin-3-yl)-4-(trifluoromethoxy)butan-2-yl)amino)pentan-2-yl)-2-(trifluoromethyl)-thiazole-5-carboxamide] | < 0.05 | –
17 | CC(C)C[C@H](NC(=O)C(=O)Nc1cccc(Cl)c1)C(=O)N[C@@H](C[C@@H]1CCNC1=O)C(=O)COc1c(F)c(F)cc(F)c1F [Compound 52, N1-(3-chlorophenyl)-N2-((S)-4-methyl-1-oxo-1-(((S)-3-oxo-1-((S)-2-oxopyrrolidin-3-yl)-4-(2,3,5,6-tetrafluorophenoxy)butan-2-yl)amino)pentan-2-yl)oxalamide] | – | EC50 (class symbols): 0.05 to 0.2 µM
